This is an account of results in patent publication US12435316B2, “Three dimensional human brain tumor models” (priority 2018, dated 2025).

The assay concerns 3D patient-derived meningioma models (pediatric patient's meningioma tissue). Kind of assay: Drug treatment of 3D patient-derived meningioma models, live cell staining (calcein AM) and confocal imaging. The settings on record: one month-old 3D pediatric meningioma models; drug 0.05 to 0.8 mM for 48 hours; calcein AM live stain; compared to etoposide, carmustine, irinotecan hydrochloride, temozolomide. Format: cell-based, human. As for the experimental part: FIGS. 7A-7B show drug treatment of 3D patient-derived meningioma models. A pediatric patient's meningioma tissue was used to generate replicates of 3D tumor models. One month-old models were treated with chemotherapeutic drugs, etoposide (VP16), carmustine (BCNU), lomustine (CCNU), irinotecan hydrochloride (CPT11) and temozolomide (TMZ) of 0.05 to 0.8 mM for 48 hours. The models were stained with calcein AM (2 uM) for live cells and confocal imaged ([…] section, 35 sections). (FIG. 7A) Maximum projection of 3D image stacks of drug-treated models. Number indicates drug concentration in mM. Ctrl, control. Scale bar, […]. (FIG. 7B) Quantification of live cell counts in relation to drug doses.
FIGS. 7A-7B show an example of drug study using patient-derived tumor models. This example used a pediatric meningioma model to test commonly used chemotherapeutic drugs (etoposide, carmustine, lomustine, irinotecan hydrochloride and temozolomide). […] Additional studies will compare the in vitro findings with the patient's clinical responses to further determine the most optimal drug regimen.
Live/Dead Assay was used to image live cells in cultures, according to the manufacturer's protocol (ThermoFisher Scientific). […] The stained cultures were imaged with a fluorescence microscope at Ex/Em of 494/517 nm and 528/617 nm for Live and Dead stains, respectively. […]

`O=NN(CCCl)C(=O)NC1CCCCC1` [lomustine]: the “tumor cell-killing effects (live cell counts in relation to drug doses)” value is “strongest tumor cell-killing effects”.
